# Assay results from patent US9096591B2, “Tetracyclic compounds” (Medivation Technologies, Inc., priority 2007, dated 2015).
# How the values were obtained:
# [1] = biological target: T1, human recombinant histamine H1 receptor (Homo sapiens, UniProt P35367); test: Histamine H1 radioligand binding ([3H]Pyrilamine); conditions: read-out: Inhibition of ligand binding, Hist. H1
# T1 construct: expressed in transfected cells; host or cells: CHO cells
# Procedure, shortened: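 CHO-expressed receptor in modified Tris-HCl buffer (50 mM, pH 7.4; 2 mM MgCl2, 100 mM NaCl, 250 mM sucrose); bound ligand measured after filtration and washing.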
# [2] = biological target: T2, human recombinant serotonin (5-Hydroxytryptamine) 5-HT2C receptor (Homo sapiens, UniProt P28335); test: Serotonin 5-HT2C radioligand binding ([3H]Mesulergine); design: Inhibition of ligand binding, Ser. 5-HT2C: concentration or dose not given beside the values; conditions: percent inhibition of specific binding
# T2 construct: expressed in transfected cells; host or cells: CHO-K1 cells
# T2 sequence (P28335 33-458): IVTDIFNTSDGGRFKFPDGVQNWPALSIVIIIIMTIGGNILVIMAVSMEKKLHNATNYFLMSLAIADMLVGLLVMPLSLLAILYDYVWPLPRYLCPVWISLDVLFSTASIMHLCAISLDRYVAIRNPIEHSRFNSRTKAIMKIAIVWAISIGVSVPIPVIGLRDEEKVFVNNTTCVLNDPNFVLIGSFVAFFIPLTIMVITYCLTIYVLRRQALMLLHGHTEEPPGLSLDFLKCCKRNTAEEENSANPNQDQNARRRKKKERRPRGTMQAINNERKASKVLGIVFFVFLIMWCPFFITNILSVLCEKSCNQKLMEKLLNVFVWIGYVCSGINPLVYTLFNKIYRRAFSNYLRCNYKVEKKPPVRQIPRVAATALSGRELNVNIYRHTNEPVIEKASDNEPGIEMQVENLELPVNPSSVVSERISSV
# Description: Compounds of the invention were incubated with 1 nM [^3H]Mesulergine for 60 minutes at 25° C. Non-specific binding was estimated in the presence of 1 μM Mianserin. Receptor proteins were filtered and washed, the filters were then counted to determine [^3H]Mesulergine specifically bound. […] Biochemical assay results are presented as the percent inhibition of specific binding in Table 6.
# C57BL/6 mice = test: Recognition of a new location of the known object (spatial memory); type: in vivo; conditions: 10 mg/kg
# Description: The object recognition test is based on the fact that mice and rats spontaneously explore new object or location of a known object a lot longer than the know object or a known location of an object. This test was first used in rats (Ennaceur A., Delacour J., 1988). It was further shown by others that this type of memory testing is suitable for mice (Dodart J. et al. 1997, Messier C. 1997, Pittenger C. et al., 2002, Ryabinin A. et al., 2002, Sargolini F. et al., 2003). The method of recognition of an object is divided in two stages. The first one involves the recognition of a new location of a known object, which is used to assess spatial memory. The second one includes a test for recognition of a new in order to evaluate the non-spatial memory (Gaffan D., 1992, Kolb B. et al., 1994, Steckler T., 1998). Currently, both are widely used to determine the effectiveness of newly synthesized drugs on memory.
# All experiments were carried out on 3-4 months old males (C57BL/6 line) 22-26 g weight with 10 animals in each group. All animals were kept in the animal facility (5 animals per cage) on the 12×12 hours light cycle (8 am-8 pm) with free access to food and water. […] Brown glass vials were used as test objects which are 2.7 cm in diameter (1.1 inch) and 5.5 cm high (2.2 inch). All vials were treated with 85% ethanol 2-3 minutes before each testing. Animals were placed in the center of the chamber.
# Dimebon and compounds of the invention were dissolved in distilled water and administered orally at 0.05 mL per 10 g of animal mass 1 hour before the training exercise. All animals in the control group were treated with the equivalent dose of vehicle. The testing was performed 48 hours after the training exercise because animals forget the location of the object during the 48-hour resting time.
# On the first day animals were brought in the testing room so that they could adapt to the testing environment for 20-30 min. Subsequently, each animal was placed in the empty testing chamber for 10 min, which was wiped with alcohol beforehand. After that animals were transferred back into the […] and returned to the animal facility.
# The next day after habituation, the animals were brought back into the testing room where they were weighed and injected with the testing compound. An hour after injection, each animal was placed into the testing camber which had two identical objects that were positioned 14.5 cm (5.7 inches) from the corners on the diagonal. The training exercise lasted for 15 min for each animal. Subsequently, each animal was placed back into the cage and returned into the animal house.
# The testing procedure was performed 48 hours after the training exercise. During the procedure two objects were used as in the training exercise. […] The amount of time that each animal spent on exploration each object was determined with 0.1 sec accuracy using two electronic stopwatches for total of 10 min. […] The survey of the object was counted as positive if the nose of an animal was pointed within 2 cm or if the animal was touching the objected directly with the nose.
# Due to fair differences in the amount of time that each animal surveyed the object, the percentage of the survey time for each animal was determined using this formula: tNL/(tFL+tNL)×100 (where t is time, NL—new location(object), and FL—familiar location(object)). […] Subsequently, the statistical significance was analyzed using a Student's t-test criteria.
# T1 sequence (P35367 whole entry): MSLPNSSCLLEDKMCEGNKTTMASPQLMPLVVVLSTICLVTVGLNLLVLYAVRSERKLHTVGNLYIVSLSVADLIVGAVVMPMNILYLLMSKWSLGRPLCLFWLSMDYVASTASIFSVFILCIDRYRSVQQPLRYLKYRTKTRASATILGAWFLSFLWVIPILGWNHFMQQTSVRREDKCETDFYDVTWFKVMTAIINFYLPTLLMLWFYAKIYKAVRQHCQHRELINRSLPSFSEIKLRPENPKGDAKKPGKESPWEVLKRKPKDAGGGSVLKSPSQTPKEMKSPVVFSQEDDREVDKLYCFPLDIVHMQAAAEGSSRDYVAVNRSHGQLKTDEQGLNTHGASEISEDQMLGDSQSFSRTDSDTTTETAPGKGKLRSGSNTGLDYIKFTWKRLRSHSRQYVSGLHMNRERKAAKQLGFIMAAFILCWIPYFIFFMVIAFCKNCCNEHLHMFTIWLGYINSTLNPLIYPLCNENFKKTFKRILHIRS
SMILES,inhibition at 1 µM [1],"Inhibition of ligand binding, Ser. 5-HT2C [2]","time to explore the known object in a new location, % of the total time (C57BL/6 mice)","time to explore the object in a known position, % of the total time (C57BL/6 mice)"
CN1CCc2c(c3cc(Cl)ccc3n2CCc2ccc(C(F)(F)F)nc2)C1 [Compound 250],102%,79%,,
"Cc1ccc2c(c1)c1c(n2CCc2ccc(C)nc2)CCN(C)C1 [Dimebon, dimebon, reference compound]",94%,86%,61.2±5%,38.8±5%
